Experimental data from patent US11679110B2, “Methods of treating disorders using CSF1R inhibitors” (Deciphera Pharmaceuticals, LLC, priority 2018, dated 2023).
Read-outs that look alike come from different tables or passages of the source. Marks after values point to notes of the source that are not given here.

Experiment: Plasma pharmacokinetics of Compound 1 in patients with advanced solid tumor malignancies and TGCT
Type: in vivo, human
Conditions: for Cmax / AUC(0-t) / Tmax: human, plasma, oral; for Tmax: Median (Min, Max)
Description: PK analysis was conducted on all 38 patients. Serial blood samples were collected for PK and took place on either Day −7, Cycle 1, Day 1 (C1D1) and C2D1 at pre-dose, 0.5, 1, 2, 4, 6, 8, 10-12, and 24 hr time points or Day −7, C1D1, C1D8, and C2D1 at pre-dose, 1, 2, 4, 6, and 8 hr time points, or C1D1, C1D8, and C2D1 at pre-dose, 1, 2, 4, 6, and 8 hr time points. High fat meal was given prior to dosing of Compound 1 on Day −7. PD effects were measured by two methodologies: 1) depletion of CSF1R-expressing monocytes in peripheral blood (Cohorts 1-7) from C1D1, C1D15 and C2D1; and 2) increase of plasma levels of CSF1 and IL-34, the ligands for CSF1R (Cohorts 1-7) on C1D1, C1D15, and C2D1. For the CD16^+ monocyte assay, whole blood collected in an EDTA vacutainer was aliquoted into tubes and incubated with fluorescently-labeled antibodies (CD14-Alexa488 (BD Pharmingen); CD16-PE-Cy7 (BD Pharmingen); and TIE2-APC (R&D Systems). After incubation, red blood cells were lysed, and the remaining cells were washed several times before being analyzed on a flow cytometer. For the plasma CSF1 assay or IL-34, whole blood collected in an EDTA vacutainer was centrifuged, and the plasma was collected and frozen. Plasma levels of CSF1 or IL-34 were measured using a commercial ELISA kit (R&D Systems).
Cohort 1 had daily dosing.

Q: For `Cc1nc(-c2cnc(NC(C)C)n(C)c2=O)ccc1Oc1ccnc(-c2cnn(C)c2)c1` [Compound 1, 2-(isopropylamino)-3-methyl-5-(6-methyl-5-((2-(1-methyl-1H-pyrazol-4-yl)pyridin-4-yl)oxy)pyridin-2-yl)pyrimidin-4(3H)-one], which Ctrough (Cohort 1 10 mg QD, C1D8, Geo Mean) is on record?
A: 331 ng/mL

Q: What about the Ctrough (Cohort 1 10 mg QD, C2D1, Geo Mean) of the same compound?
A: 447^c ng/mL

Q: And the Ctrough (Cohort 2 10 mg QD x 5 d, BIW maintenance dose, C1D8, Geo Mean)?
A: 184 ng/mL

Q: What about the Ctrough (Cohort 2 10 mg QD x 5 d, BIW maintenance dose, C2D1, Geo Mean) of the same compound?
A: 122 ng/mL

Q: What about the AUC0-8 (Cohort 2 10 mg Twice Weekly after 5-day QD loading dose, C2D1, GM (CV %)) of the same compound?
A: 1030 (63) hr*ng/mL

Q: What about the Ctrough (Cohort 3 20 mg QD x 5 d, QW maintenance dose, C1D8, Geo Mean) of the same compound?
A: 850 ng/mL

Q: And the Ctrough (Cohort 3 20 mg QD x 5 d, QW maintenance dose, C2D1, Geo Mean)?
A: 205 ng/mL

Q: What about the AUC0-8 (Cohort 3 20 mg Weekly after 5-day QD loading dose, C2D1, GM (CV %)) of the same compound?
A: 3380 ng·h/mL

Q: And the Ctrough (Cohort 4 20 mg QD x 5 d, BIW maintenance dose, C1D8, Geo Mean)?
A: 483 ng/mL

Q: What about the Ctrough (Cohort 4 20 mg QD x 5 d, BIW maintenance dose, C2D1, Geo Mean) of the same compound?
A: 441 ng/mL

Q: What about the AUC0-8 (Cohort 4 20 mg Twice Weekly after 5-day QD loading dose, C2D1, GM (CV %)) of the same compound?
A: 4300 (2.82) hr*ng/mL

Q: What about the Ctrough (Cohort 5 30 mg QD x 5 d, BIW maintenance dose, C1D8, Geo Mean) of the same compound?
A: 1020 ng/mL

Q: And the Ctrough (Cohort 5 30 mg QD x 5 d, BIW maintenance dose, C2D1, Geo Mean)?
A: 574 ng/mL

Q: What about the AUC0-8 (Cohort 5 30 mg Twice Weekly after 5-day QD loading dose, C2D1, GM (CV %)) of the same compound?
A: 4750 (53.2) hr*ng/mL

Q: And the Ctrough (Cohort 6 30 mg QD x 5 d, BIW maintenance dose (so in the source), C2D1, Geo Mean)?
A: 570 ng/mL

Q: And the AUC0-8 (Cohort 6 40 mg Twice Weekly after 5-day QD loading dose, C2D1, GM (CV %))?
A: 7290 (28.1) hr*ng/mL

Q: And the AUC0-8 (Cohort 7 20 mg QD after 3-day 50 mg QD loading dose, C2D1, GM (CV %))?
A: 5580 (86.8) hr*ng/mL

Q: What about the Ctrough (Cohort 7 50 mg QD x 3 d, QD maintenance dose, C2D1, Geo Mean) of the same compound?
A: 1040 ng/mL

Q: And the Cmax (10 mg, Cohort 1 10 mg QD, C1D1, GM (CV %))?
A: 155 ng/mL

Q: What about the AUC(0-t) (10 mg, Cohort 1 10 mg QD, C1D1, GM (CV %), read-out: AUC0-8) of the same compound?
A: 770 ng·h/mL

Q: What about the Cmax (10 mg, Cohort 1 10 mg QD, C1D1, Geo Mean) of the same compound?
A: 155 ng/mL

Q: And the AUC(0-t) (10 mg, Cohort 1 10 mg QD, C1D1, Geo Mean, read-out: AUC0-8 h)?
A: 770 ng·h/mL

Q: And the Tmax (10 mg, Cohort 1 10 mg QD, C1D1)?
A: 1 h

Q: What about the Cmax (10 mg, Cohort 1 10 mg QD, C2D1, GM (CV %)) of the same compound?
A: 767 ng/mL

Q: And the AUC(0-t) (10 mg, Cohort 1 10 mg QD, C2D1, GM (CV %), read-out: AUC0-8)?
A: 4510 ng·h/mL

Q: And the Cmax (10 mg, Cohort 1 10 mg QD, C2D1, Geo Mean)?
A: 767 ng/mL

Q: What about the AUC(0-t) (10 mg, Cohort 1 10 mg QD, C2D1, Geo Mean, read-out: AUC0-8 h) of the same compound?
A: 4470 ng·h/mL

Q: And the Tmax (10 mg, Cohort 1 10 mg QD, C2D1)?
A: 0.5 h

Q: What about the Cmax (10 mg, Cohort 1 10 mg QD, Day -7, Geo Mean) of the same compound?
A: 75.9 ng/mL

Q: And the AUC(0-t) (10 mg, Cohort 1 10 mg QD, Day -7, Geo Mean, read-out: AUC0-8 h)?
A: 429 ng·h/mL

Q: What about the Cmax (10 mg, Cohort 1 10 mg QD, Day-7, GM (CV %)) of the same compound?
A: 75.9 ng/mL

Q: What about the AUC(0-t) (10 mg, Cohort 1 10 mg QD, Day-7, GM (CV %), read-out: AUC0-8) of the same compound?
A: 425 ng·h/mL

Q: What about the Cmax (10 mg, Cohort 2 10 mg QD x 5 d, BIW maintenance dose, C1D1, Geo Mean) of the same compound?
A: 168 ng/mL

Q: And the AUC(0-t) (10 mg, Cohort 2 10 mg QD x 5 d, BIW maintenance dose, C1D1, Geo Mean, read-out: AUC0-8 h)?
A: 1080 ng·h/mL

Q: And the Cmax (10 mg, Cohort 2 10 mg QD x 5 d, BIW maintenance dose, C1D8, Geo Mean)?
A: 248 ng/mL

Q: And the AUC(0-t) (10 mg, Cohort 2 10 mg QD x 5 d, BIW maintenance dose, C1D8, Geo Mean, read-out: AUC0-8 h)?
A: 1730 ng·h/mL

Q: What about the Cmax (10 mg, Cohort 2 10 mg QD x 5 d, BIW maintenance dose, C2D1, Geo Mean) of the same compound?
A: 149 ng/mL

Q: What about the AUC(0-t) (10 mg, Cohort 2 10 mg QD x 5 d, BIW maintenance dose, C2D1, Geo Mean, read-out: AUC0-8 h) of the same compound?
A: 1030 ng·h/mL

Q: What about the Cmax (10 mg, Cohort 2 10 mg QD x 5 d, BIW maintenance dose, Day -7, Geo Mean) of the same compound?
A: 119 ng/mL

Q: And the AUC(0-t) (10 mg, Cohort 2 10 mg QD x 5 d, BIW maintenance dose, Day -7, Geo Mean, read-out: AUC0-8 h)?
A: 781 ng·h/mL

Q: And the Cmax (10 mg, Cohort 2 10 mg Twice Weekly after 5-day QD loading dose, C1D1, GM (CV %))?
A: 94 ng/mL

Q: And the AUC(0-t) (10 mg, Cohort 2 10 mg Twice Weekly after 5-day QD loading dose, C1D1, GM (CV %), read-out: AUC0-8)?
A: 467 ng·h/mL

Q: What about the Cmax (10 mg, Cohort 2 10 mg Twice Weekly after 5-day QD loading dose, C1D8, GM (CV %)) of the same compound?
A: 248 ng/mL

Q: What about the AUC(0-t) (10 mg, Cohort 2 10 mg Twice Weekly after 5-day QD loading dose, C1D8, GM (CV %), read-out: AUC0-8) of the same compound?
A: 1730 ng·h/mL

Q: What about the Tmax (10 mg, Cohort 2 10 mg Twice Weekly after 5-day QD loading dose, C1D8) of the same compound?
A: 1 h

Q: What about the Cmax (10 mg, Cohort 2 10 mg Twice Weekly after 5-day QD loading dose, C2D1, GM (CV %)) of the same compound?
A: 149 ng/mL

Q: What about the AUC(0-t) (10 mg, Cohort 2 10 mg Twice Weekly after 5-day QD loading dose, C2D1, GM (CV %), read-out: AUC0-8) of the same compound?
A: 1030 ng·h/mL

Q: And the Tmax (10 mg, Cohort 2 10 mg Twice Weekly after 5-day QD loading dose, C2D1)?
A: 1 h

Q: And the Cmax (10 mg, Cohort 2 10 mg Twice Weekly after 5-day QD loading dose, Day-7, GM (CV %))?
A: 80.2 ng/mL

Q: And the AUC(0-t) (10 mg, Cohort 2 10 mg Twice Weekly after 5-day QD loading dose, Day-7, GM (CV %), read-out: AUC0-8)?
A: 353 ng·h/mL

Q: And the Cmax (20 mg, Cohort 3 20 mg QD x 5 d, QW maintenance dose, C1D1, Geo Mean)?
A: 466 ng/mL

Q: What about the AUC(0-t) (20 mg, Cohort 3 20 mg QD x 5 d, QW maintenance dose, C1D1, Geo Mean, read-out: AUC0-8 h) of the same compound?
A: 2510 ng·h/mL

Q: And the Cmax (20 mg, Cohort 3 20 mg QD x 5 d, QW maintenance dose, C1D8, Geo Mean)?
A: 1160 ng/mL

Q: What about the AUC(0-t) (20 mg, Cohort 3 20 mg QD x 5 d, QW maintenance dose, C1D8, Geo Mean, read-out: AUC0-8 h) of the same compound?
A: 7410 ng·h/mL

Q: What about the Cmax (20 mg, Cohort 3 20 mg QD x 5 d, QW maintenance dose, C2D1, Geo Mean) of the same compound?
A: 530 ng/mL

Q: And the AUC(0-t) (20 mg, Cohort 3 20 mg QD x 5 d, QW maintenance dose, C2D1, Geo Mean, read-out: AUC0-8 h)?
A: 3380 ng·h/mL

Q: And the Cmax (20 mg, Cohort 3 20 mg QD x 5 d, QW maintenance dose, Day -7, Geo Mean)?
A: 242 ng/mL

Q: What about the AUC(0-t) (20 mg, Cohort 3 20 mg QD x 5 d, QW maintenance dose, Day -7, Geo Mean, read-out: AUC0-8 h) of the same compound?
A: 1320 ng·h/mL

Q: What about the Cmax (20 mg, Cohort 3 20 mg Weekly after 5-day QD loading dose, C1D1, GM (CV %)) of the same compound?
A: 466 ng/mL

Q: And the AUC(0-t) (20 mg, Cohort 3 20 mg Weekly after 5-day QD loading dose, C1D1, GM (CV %), read-out: AUC0-8)?
A: 2510 ng·h/mL

Q: What about the Tmax (20 mg, Cohort 3 20 mg Weekly after 5-day QD loading dose, C1D1) of the same compound?
A: 1 h

Q: And the Cmax (20 mg, Cohort 3 20 mg Weekly after 5-day QD loading dose, C1D8, GM (CV %))?
A: 1160 ng/mL

Q: What about the AUC(0-t) (20 mg, Cohort 3 20 mg Weekly after 5-day QD loading dose, C1D8, GM (CV %), read-out: AUC0-8) of the same compound?
A: 7290 ng·h/mL

Q: What about the Tmax (20 mg, Cohort 3 20 mg Weekly after 5-day QD loading dose, C1D8) of the same compound?
A: 1 h

Q: And the Cmax (20 mg, Cohort 3 20 mg Weekly after 5-day QD loading dose, C2D1, GM (CV %))?
A: 530 ng/mL

Q: What about the AUC(0-t) (20 mg, Cohort 3 20 mg Weekly after 5-day QD loading dose, C2D1, GM (CV %), read-out: AUC0-8) of the same compound?
A: 3380 ng·h/mL

Q: What about the Tmax (20 mg, Cohort 3 20 mg Weekly after 5-day QD loading dose, C2D1) of the same compound?
A: 1 h
